Assays:
EGFR L858R = target: T1, EGFR L858R (Homo sapiens, UniProt P00533, L858R); assay: Biochemical EGFR inhibition assay (Caliper mobility shift), EGFR L858R; details: biochemical Caliper mobility shift assay, EGFR L858R enzyme; read-out: Enz EGFR L858R IC50
T1 construct: purchased SignalChem E10-122BG
Method in brief: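 Mobility-shift readout: phosphorylated and unphosphorylated 5-FAM peptide (2.5 µM) separated electrophoretically. Reactions at room temperature (25 °C), 1.0 mM ATP or ATP Km, HEPES pH 7.5 with MgCl2, Brij-35, DTT and 1.0% DMSO; terminated at 10–20% turnover with 35 mM EDTA. Apparent IC50 fitted.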

EGFR (d746-750) = target: T2, EGFR (d746-750) (Homo sapiens, UniProt P00533, DEL746-750); assay: Biochemical EGFR inhibition assay (Caliper mobility shift), EGFR (d746-750); details: biochemical Caliper mobility shift assay, EGFR Exon 19-del enzyme; read-out: Enz EGFR Exon 19-del IC50
T2 construct: purchased SignalChem E10-122JG
Procedure: Inhibitory effects of the compounds of the disclosure were measured in biochemical assays that measure the phosphorylation activity of EGFR enzyme phosphorylates 2.5 micromolar 5-FAM-[…]-CONH2 peptide substrate (ProfilerPro Kinase Peptide Substrate 22, PerkinElmer, Part #760366) in the presence of adenosine-5′-triphosphate (ATP) and varying concentrations of the test compound in 100 mM 2-[4-(2-hydroxyethyl)piperazin-1-yl]ethanesulfonic acid (HEPES), pH 7.5, 10 mM MgCl2, 0.015% Brij-35, 1 mM dithiothreitol (DTT), 1.0% dimehylsulfoxide (DMSO). Assays were performed at 1.0 mM ATP or at ATP Km of the EGFR enzymes. Reactions proceeded until between 10% to 20% total peptides were phosphorylated at room temperature (25° C.) and were terminated with 35 mM 2,2′,2″,2′″-(ethane-1,2-diyldinitrilo)tetraacetic acid (EDTA). Product was detected using the Caliper mobility shift detection method where the phosphorylated peptide (product) and substrate were electrophoretically separated and measured. Percent activity was plotted against log concentration of compound and points to generate an apparent IC50. The following enzyme forms of • EGFR were examples that were used in these assays: • EGFR WT (SignalChem, E10-112G) • EGFR L858R (SignalChem, E10-122BG) • EGFR (d746-750) (SignalChem, E10-122JG) • EGFR L858R C797S (SignalChem, E10-122ZG) • EGFR (d746-750) C797S (SignalChem, E10-122TG)

[1] = target: intracellular phosphorylation of EGFR (Tyr1068) in PC-9 cells (Homo sapiens, UniProt P00533, DEL746-750); assay: PC-9 pEGFR AlphaLISA assay; type: cell-based; details: 4 hours incubation, read-out: Phos EGFR PC9 IC50
Method in brief: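 PC-9 cells (EGFR del746-750) in phenol-free DMEM/10% FBS, adhered overnight, then exposed to 10-point 4-fold compound dilutions for 4 h at 37 °C. Lysates assayed for pEGFR Tyr1068 by AlphaLISA SureFire Ultra; IC50 from percent pEGFR inhibition vs log concentration.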

T2 sequence (P00533 with tags, fused parts or gaps DEL746-750 limits assumed): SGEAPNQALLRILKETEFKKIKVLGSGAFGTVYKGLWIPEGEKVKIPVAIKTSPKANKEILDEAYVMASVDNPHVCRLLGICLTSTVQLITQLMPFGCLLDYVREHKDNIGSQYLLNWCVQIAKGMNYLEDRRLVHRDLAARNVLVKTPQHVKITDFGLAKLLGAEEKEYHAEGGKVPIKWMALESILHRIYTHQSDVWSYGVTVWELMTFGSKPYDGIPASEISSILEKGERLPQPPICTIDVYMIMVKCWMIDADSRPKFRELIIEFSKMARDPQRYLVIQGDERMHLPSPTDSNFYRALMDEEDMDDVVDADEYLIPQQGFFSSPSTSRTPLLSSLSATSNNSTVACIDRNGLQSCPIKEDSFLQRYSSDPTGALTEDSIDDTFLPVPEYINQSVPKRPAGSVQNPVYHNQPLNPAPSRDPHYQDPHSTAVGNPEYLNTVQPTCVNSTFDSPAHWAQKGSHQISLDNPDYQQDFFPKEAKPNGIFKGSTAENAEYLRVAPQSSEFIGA
T1 sequence (P00533 25-1210 L858R): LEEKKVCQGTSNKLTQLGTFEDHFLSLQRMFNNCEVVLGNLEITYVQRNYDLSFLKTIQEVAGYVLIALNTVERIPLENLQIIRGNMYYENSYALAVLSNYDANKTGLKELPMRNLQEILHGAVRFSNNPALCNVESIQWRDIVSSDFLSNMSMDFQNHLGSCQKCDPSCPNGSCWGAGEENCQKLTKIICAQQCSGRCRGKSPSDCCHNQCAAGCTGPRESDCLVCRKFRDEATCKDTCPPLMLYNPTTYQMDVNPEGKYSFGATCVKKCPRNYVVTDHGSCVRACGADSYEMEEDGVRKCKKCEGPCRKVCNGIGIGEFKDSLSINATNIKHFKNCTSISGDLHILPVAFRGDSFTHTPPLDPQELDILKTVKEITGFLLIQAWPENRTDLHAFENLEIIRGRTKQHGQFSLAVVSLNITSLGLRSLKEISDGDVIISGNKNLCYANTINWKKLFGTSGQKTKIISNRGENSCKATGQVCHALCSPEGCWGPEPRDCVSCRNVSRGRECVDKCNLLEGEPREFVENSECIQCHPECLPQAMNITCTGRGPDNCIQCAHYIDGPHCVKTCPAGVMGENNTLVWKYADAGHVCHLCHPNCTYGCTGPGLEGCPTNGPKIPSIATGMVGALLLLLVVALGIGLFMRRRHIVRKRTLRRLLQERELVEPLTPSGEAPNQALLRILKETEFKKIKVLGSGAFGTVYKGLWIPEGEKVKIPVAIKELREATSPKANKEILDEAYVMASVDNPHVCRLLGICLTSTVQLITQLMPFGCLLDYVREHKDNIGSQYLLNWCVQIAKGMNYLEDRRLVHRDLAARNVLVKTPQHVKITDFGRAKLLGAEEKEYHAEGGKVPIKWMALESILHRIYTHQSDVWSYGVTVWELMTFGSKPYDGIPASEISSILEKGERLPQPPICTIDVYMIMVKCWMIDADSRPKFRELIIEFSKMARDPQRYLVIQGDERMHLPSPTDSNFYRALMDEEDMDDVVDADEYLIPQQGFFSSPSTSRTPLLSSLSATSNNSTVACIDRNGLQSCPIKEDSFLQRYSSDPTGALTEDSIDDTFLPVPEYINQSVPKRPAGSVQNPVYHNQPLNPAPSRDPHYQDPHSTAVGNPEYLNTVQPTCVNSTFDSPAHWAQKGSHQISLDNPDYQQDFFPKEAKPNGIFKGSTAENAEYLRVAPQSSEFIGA
intracellular phosphorylation of EGFR (Tyr1068) in PC-9 cells, sequence (P00533 with tags, fused parts or gaps DEL746-750): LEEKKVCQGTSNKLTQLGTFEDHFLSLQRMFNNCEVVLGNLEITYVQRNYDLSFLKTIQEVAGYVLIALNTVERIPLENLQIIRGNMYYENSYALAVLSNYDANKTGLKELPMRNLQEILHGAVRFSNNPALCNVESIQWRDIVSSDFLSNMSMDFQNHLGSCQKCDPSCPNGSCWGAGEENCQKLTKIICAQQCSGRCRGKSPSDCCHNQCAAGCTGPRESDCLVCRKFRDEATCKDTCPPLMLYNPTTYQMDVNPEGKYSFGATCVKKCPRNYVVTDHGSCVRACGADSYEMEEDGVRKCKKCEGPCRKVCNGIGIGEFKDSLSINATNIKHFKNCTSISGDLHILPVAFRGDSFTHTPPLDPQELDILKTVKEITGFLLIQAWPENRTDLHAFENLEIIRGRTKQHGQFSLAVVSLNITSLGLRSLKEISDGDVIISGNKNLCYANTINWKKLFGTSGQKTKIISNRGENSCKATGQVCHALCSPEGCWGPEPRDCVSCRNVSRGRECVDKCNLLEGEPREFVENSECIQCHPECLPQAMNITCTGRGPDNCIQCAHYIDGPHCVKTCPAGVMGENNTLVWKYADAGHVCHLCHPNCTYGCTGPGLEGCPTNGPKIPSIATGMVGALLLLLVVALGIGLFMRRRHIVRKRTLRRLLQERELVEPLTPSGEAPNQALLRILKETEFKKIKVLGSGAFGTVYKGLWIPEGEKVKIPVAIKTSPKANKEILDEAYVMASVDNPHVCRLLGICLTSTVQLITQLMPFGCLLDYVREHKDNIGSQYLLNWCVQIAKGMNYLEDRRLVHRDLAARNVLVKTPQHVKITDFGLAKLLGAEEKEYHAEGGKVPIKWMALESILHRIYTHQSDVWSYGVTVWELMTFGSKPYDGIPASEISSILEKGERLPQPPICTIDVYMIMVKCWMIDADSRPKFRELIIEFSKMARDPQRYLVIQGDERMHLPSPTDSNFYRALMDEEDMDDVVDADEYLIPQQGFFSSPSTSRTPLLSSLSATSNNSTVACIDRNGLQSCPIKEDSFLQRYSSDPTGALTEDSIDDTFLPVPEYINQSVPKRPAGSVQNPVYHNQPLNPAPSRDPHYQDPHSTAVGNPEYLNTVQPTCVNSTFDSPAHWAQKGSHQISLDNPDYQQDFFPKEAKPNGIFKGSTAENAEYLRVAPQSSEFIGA

Structure (SMILES)	IC50 (EGFR L858R) [µM]	IC50 (EGFR (d746-750)) [µM]	IC50 [1] [µM]
C[C@@H](Oc1cc(-c2cnn(C)c2)cc2ncnc(Nc3ccc4ncsc4c3F)c12)C1CN(C)C1 (single isomer, unassigned) [Example 388]	> 0.0501	0.0101 to 0.05	> 0.0501
Cn1cc(-c2cc(OCC3CCOC3)c3c(Nc4ccc5ncsc5c4)ncnc3c2)cn1 (stereo not drawn) [Example 413, N-(7-(1-methyl-1H-pyrazol-4-yl)-5-((tetrahydrofuran-3-yl)methoxy)quinazolin-4-yl)benzo[d]thiazol-6-amine]	≤ 0.01	≤ 0.01	0.0101 to 0.05
COc1nn(C)cc1-c1cc(O[C@H](C)C2COC2)c2c(Nc3ccc4ncsc4c3F)ncnc2c1 (single isomer, unassigned) [Example 78]	≤ 0.01	≤ 0.01	≤ 0.01
CN1CCC2(COC2)[C@H](Oc2cc(-c3cnn(C)c3)cc3ncnc(Nc4ccc5ncsc5c4)c23)C1 (single isomer, unassigned) [Example 353]	≤ 0.01	≤ 0.01	≤ 0.01
C[C@H](CO)n1cc(-c2cc(O[C@H](C)C3COC3)c3c(Nc4ccc5ncsc5c4)ncnc3c2)cn1 (single isomer, unassigned) [Example 297]	≤ 0.01	≤ 0.01	≤ 0.01
COc1cc2ncnc(Nc3ccc4ncsc4c3)c2cc1-c1cnn([C@@H]2CCNC[C@@H]2F)c1 (racemic) [Example 164, cis-N-(6-(1-((3R,4S)-3-fluoropiperidin-4-yl)-1H-pyrazol-4-yl)-7-methoxyquinazolin-4-yl)benzo[d]thiazol-6-amine]	≤ 0.01	≤ 0.01	0.0101 to 0.05
CN1CC[C@H](Oc2cc(-c3cnn(C)c3)cc3ncnc(Nc4ccc5ncsc5c4)c23)[C@@H](O)C1 (single isomer, unassigned) [Example A35]	≤ 0.01	≤ 0.01	0.0101 to 0.05
CN(C)CC1(COc2cc(-c3cnn(C)c3)cc3ncnc(Nc4ccc5ncsc5c4)c23)COC1 [Example 188, N-(5-((3-((dimethylamino)methyl)oxetan-3-yl)methoxy)-7-(1-methyl-1H-pyrazol-4-yl)quinazolin-4-yl)benzo[d]thiazol-6-amine]	0.0101 to 0.05	≤ 0.01	0.0101 to 0.05
CN1CCC[C@H](Oc2cc(-c3cn(C)nc3OC(F)F)cc3ncnc(Nc4ccc5ncsc5c4)c23)C1 [Example 248, (S)-N-(7-(3-(difluoromethoxy)-1-methyl-1H-pyrazol-4-yl)-5-((1-methylpiperidin-3-yl)oxy)quinazolin-4-yl)benzo[d]thiazol-6-amine]	0.0101 to 0.05	≤ 0.01	0.0101 to 0.05
Cn1cc(-c2cc(OC3CCOCC3)c3c(Nc4ccc5ncsc5c4)ncnc3c2)cn1 [Example 15, N-(7-(1-methyl-1H-pyrazol-4-yl)-5-((tetrahydro-2H-pyran-4-yl)oxy)quinazolin-4-yl)benzo[d]thiazol-6-amine]	≤ 0.01	≤ 0.01	≤ 0.01
CO[C@H]1COC[C@@H]1Oc1cc(-c2cnn(C)c2)cc2ncnc(Nc3ccc4ncsc4c3)c12 (single isomer, unassigned) [Example A31]	≤ 0.01	≤ 0.01	0.0101 to 0.05
C[C@@H](Oc1cc(-c2cnn(C)c2)cc2ncnc(Nc3ccc4ncsc4c3F)c12)C1CN(C)C1 (single isomer, unassigned) [Example 387]	≤ 0.01	≤ 0.01	≤ 0.01
